Assay [1] concerns the target T1, Integrin alpha-L (Homo sapiens, UniProt P20701).
T1 sequence (P20701 whole entry): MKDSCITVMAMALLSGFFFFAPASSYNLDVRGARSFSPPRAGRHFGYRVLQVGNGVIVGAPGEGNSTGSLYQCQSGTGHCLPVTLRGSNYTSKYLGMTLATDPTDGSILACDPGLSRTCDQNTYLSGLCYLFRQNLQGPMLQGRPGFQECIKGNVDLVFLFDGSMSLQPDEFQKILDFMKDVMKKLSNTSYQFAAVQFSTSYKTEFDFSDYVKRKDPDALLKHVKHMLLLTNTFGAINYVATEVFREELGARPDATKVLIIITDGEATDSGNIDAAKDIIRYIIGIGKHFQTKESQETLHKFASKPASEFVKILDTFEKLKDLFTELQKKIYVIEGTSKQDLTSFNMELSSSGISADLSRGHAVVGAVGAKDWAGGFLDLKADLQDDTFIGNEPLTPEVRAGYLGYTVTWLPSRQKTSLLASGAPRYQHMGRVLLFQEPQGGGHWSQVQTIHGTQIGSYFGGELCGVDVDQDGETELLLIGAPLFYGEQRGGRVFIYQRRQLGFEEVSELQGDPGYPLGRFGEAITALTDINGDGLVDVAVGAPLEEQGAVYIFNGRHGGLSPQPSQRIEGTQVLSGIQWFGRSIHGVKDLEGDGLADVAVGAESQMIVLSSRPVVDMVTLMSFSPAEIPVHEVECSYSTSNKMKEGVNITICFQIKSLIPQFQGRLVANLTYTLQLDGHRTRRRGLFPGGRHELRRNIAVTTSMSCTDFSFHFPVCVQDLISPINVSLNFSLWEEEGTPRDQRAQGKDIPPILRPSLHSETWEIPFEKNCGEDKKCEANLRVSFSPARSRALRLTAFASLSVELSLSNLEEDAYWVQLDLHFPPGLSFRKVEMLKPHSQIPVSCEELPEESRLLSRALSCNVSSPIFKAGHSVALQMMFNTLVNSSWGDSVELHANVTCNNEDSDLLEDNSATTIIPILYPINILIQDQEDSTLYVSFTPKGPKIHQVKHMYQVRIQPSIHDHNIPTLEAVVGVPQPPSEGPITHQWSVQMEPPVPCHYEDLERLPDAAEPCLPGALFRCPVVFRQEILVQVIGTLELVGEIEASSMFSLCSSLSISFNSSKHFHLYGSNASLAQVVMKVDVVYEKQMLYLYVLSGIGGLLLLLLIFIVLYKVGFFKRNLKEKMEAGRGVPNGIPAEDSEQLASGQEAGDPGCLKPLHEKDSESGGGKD

Assay [2] addresses T1, Integrin alpha-L. The source holds these as a separate data set.
Assay [3] deals with T2, Intercellular adhesion molecule (ICAM-1), Integrin alpha-L/beta-2 (Homo sapiens, UniProt P05107+P20701). Description: Inhibition of LFA-1 mediated JY-8 cell adhesion to ICAM-1, range (30-150). Type of assay: functional, cell-based.
Assay [4] addresses T1, Integrin alpha-L. The assay can be described thus: Inhibition of intercellular adhesion molecule-1 (ICAM-1) binding to recombinant LFA-1, range(30-60).
Assay [5] deals with T1, Integrin alpha-L. Description: Inhibition of intercellular adhesion molecule-1 (ICAM-1) binding to recombinant LFA-1, range(40-60).
Assay [6] deals with T1, Integrin alpha-L. Description: Inhibition of intercellular adhesion molecule-1 (ICAM-1) binding to recombinant LFA-1.
Assay [7] deals with T1, Integrin alpha-L. The assay can be described thus: Inhibition of intercellular adhesion molecule-1 (ICAM-1) binding to recombinant LFA-1, range (80-110).
Assay [8] deals with T2, Intercellular adhesion molecule (ICAM-1), Integrin alpha-L/beta-2. The assay can be described thus: Inhibition of LFA-1 mediated JY-8 cell adhesion to ICAM-1. Type of assay: functional, cell-based.
Assay [9] addresses T1, Integrin alpha-L. The assay can be described thus: Inhibition of intercellular adhesion molecule-1 (ICAM-1) binding to recombinant LFA-1, range(6-13).
The target of assay [10] is T2, Intercellular adhesion molecule (ICAM-1), Integrin alpha-L/beta-2. The assay can be described thus: Inhibition of LFA-1 mediated JY-8 cell adhesion to ICAM-1, range (2-2). The assay is classed as functional, cell-based.
In assay [11] the target is T1, Integrin alpha-L. The assay can be described thus: Inhibition of intercellular adhesion molecule-1 (ICAM-1) binding to recombinant LFA-1, range (4-7).
Assay [12] has as its target T1, Integrin alpha-L. Description: Inhibition of intercellular adhesion molecule-1 (ICAM-1) binding to recombinant LFA-1, range(140-150).
Assay [13] has as its target T1, Integrin alpha-L. Description: Inhibition of intercellular adhesion molecule-1 (ICAM-1) binding to recombinant LFA-1, range (10400-11300).
The target of assay [14] is T3, Intercellular adhesion molecule (ICAM-1), Integrin alpha-L/beta-2 (Homo sapiens) (UniProt P20701+P05362+P05107). The following applies: Rattus norvegicus.
Assay [15] relates to Mus musculus. The assay can be described thus: Inhibition of allergen induced total cell influx in mouse lung at 10 mg/kg. Type of assay: functional.
Assay [16] deals with Mus musculus. The assay can be described thus: Inhibition of allergen induced total cell influx in mouse lung at 1 mg/kg. The assay is classed as functional.
Assay [17] has as its system Mus musculus. Description: Inhibition of allergen induced neutrophil influx in mouse lung at 1 mg/kg. The assay is classed as functional.
For assay [18], the system named is Mus musculus. The assay can be described thus: Inhibition of allergen induced neutrophil influx in mouse lung at 10 mg/kg. The assay is classed as functional.
Assay [19] has as its target T3, Intercellular adhesion molecule (ICAM-1), Integrin alpha-L/beta-2 (Homo sapiens). The following applies: Rattus norvegicus. The source holds these as a separate data set.
In assay [20] the test system is Mus musculus. The assay can be described thus: Inhibition of allergen induced neutrophil influx in mouse lung at 3 mg/kg. Type of assay: functional.
In assay [21] the test system is Mus musculus. Description: Inhibition of allergen induced total cell influx in mouse lung at 3 mg/kg. The assay is classed as functional.
Assay [22] deals with T2, Intercellular adhesion molecule (ICAM-1), Integrin alpha-L/beta-2.
In assay [23] the target is T1, Integrin alpha-L. This is another data set of the same source.
Assay [24] has as its target T1, Integrin alpha-L. Description: Inhibition of intercellular adhesion molecule-1 (ICAM-1) binding to recombinant LFA-1, range (6-12).
In assay [25] the target is T2, Intercellular adhesion molecule (ICAM-1), Integrin alpha-L/beta-2. Description: Inhibition of LFA-1 mediated JY-8 cell adhesion to ICAM-1, range (2-30). Type of assay: functional, cell-based.

Where only a bound is given, the exact number is not on record here.

T2 sequence (P05362 whole entry, one chain of several, further chain): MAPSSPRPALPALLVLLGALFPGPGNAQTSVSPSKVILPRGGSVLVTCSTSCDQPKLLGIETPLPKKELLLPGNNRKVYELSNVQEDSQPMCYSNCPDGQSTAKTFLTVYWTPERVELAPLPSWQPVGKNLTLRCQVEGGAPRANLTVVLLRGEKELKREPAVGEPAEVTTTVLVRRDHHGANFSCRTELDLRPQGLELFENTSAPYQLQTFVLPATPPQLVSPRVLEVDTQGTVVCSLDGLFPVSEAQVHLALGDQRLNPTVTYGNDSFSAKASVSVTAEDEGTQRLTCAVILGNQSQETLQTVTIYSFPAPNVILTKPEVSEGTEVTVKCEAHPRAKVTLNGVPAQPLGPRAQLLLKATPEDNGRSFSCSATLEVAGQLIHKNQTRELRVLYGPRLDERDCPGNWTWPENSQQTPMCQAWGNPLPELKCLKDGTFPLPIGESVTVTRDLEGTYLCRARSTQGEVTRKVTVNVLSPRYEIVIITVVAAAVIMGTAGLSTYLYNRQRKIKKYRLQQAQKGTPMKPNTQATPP
T2 sequence (P05107 whole entry, one chain of several): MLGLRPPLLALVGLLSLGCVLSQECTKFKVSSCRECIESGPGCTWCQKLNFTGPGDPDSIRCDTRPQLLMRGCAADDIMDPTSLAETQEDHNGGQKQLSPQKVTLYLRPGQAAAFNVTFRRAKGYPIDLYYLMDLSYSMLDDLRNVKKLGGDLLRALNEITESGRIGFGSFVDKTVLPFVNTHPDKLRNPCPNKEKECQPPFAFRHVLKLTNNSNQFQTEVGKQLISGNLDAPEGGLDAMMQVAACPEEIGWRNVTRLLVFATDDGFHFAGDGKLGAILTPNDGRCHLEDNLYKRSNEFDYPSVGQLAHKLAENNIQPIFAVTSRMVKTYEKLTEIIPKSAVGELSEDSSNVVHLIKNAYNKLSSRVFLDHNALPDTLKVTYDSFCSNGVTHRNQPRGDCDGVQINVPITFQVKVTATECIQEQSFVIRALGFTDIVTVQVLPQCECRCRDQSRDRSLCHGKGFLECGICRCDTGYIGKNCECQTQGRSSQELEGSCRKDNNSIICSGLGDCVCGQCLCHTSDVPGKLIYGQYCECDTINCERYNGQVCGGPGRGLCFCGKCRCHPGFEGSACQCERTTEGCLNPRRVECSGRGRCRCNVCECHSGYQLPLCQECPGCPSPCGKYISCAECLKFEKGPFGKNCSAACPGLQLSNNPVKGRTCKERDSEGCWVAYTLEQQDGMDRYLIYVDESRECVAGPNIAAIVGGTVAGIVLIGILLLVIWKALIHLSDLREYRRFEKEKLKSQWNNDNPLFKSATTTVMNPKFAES

In the case of `O=C(/C=C/c1ccc(Sc2ccc3c(c2)OCCO3)c(C(F)(F)F)c1)N1CCOCC1`, in assay [1], the IC50 amounted to 0.03 µM. `CC(C)c1ccccc1SC1=CC=C(/C=C/C(=O)N2CCC(C(=O)O)CC2)C(F)C1F` (centres undefined) showed an IC50 in [2] of 0.115 µM. In the case of `CC(=O)N1CCN(C(=O)/C=C/c2ccc(Sc3ccc4c(c3)OCCO4)c(Cl)c2)CC1`, the IC50 in [3] worked out at 0.08 µM; in assay [4], 0.04 µM. Regarding `O=C(O)C1CCN(C(=O)/C=C/c2ccc(Sc3ccc4c(c3)OCCO4)c(C(F)(F)F)c2)CC1`, the IC50 in assay [5] was found to be 0.05 µM.

Take `COc1ccccc1Sc1ccc(/C=C/C(=O)N2CCC(C(=O)O)CC2)c(C)c1`: in assay [6], the IC50 is above 20 µM. Turning to `COc1ccccc1Sc1ccc(/C=C/C(=O)N2CCOCC2)c(C)c1C`, the IC50 in [7] was determined as 0.09 µM. For the molecule `COc1ccccc1Sc1ccc(/C=C/C(=O)N2CCOCC2)c(Cl)c1Cl`, the IC50 in assay [8] was 0.006 µM; in [9] it was 0.01 µM.

Take `COc1ccccc1Sc1cc(C)c(/C=C/C(=O)N2CCC(C(=O)O)CC2)cc1[N+](=O)[O-]`: the IC50 in assay [6] is above 20 µM. For the molecule `O=C(O)C1CCN(C(=O)/C=C/c2ccc(Sc3ccc4c(c3)OCCO4)c(Cl)c2C(F)(F)F)CC1`, the IC50 in assay [10] was 0.002 µM; in [11] it was 0.005 µM. Consider `O=C(O)C1CCN(C(=O)/C=C/c2cc(Cl)c(Sc3ccc4c(c3)OCCO4)c(C(F)(F)F)c2)CC1`, for which the IC50 in [6] was above 20 µM.

As for `O=C(O)C1CCN(C(=O)/C=C/c2ccc(Sc3ccc4c(c3)OCCO4)c(Cl)c2)CC1`, in assay [12], the IC50 was 0.145 µM. In the case of `O=C(/C=C/c1ccc(Sc2cccc(Cl)c2Cl)cc1)N1CCOCC1`, in assay [6], the IC50 turned out to be 9.1 µM. Consider `COc1ccccc1Sc1ccc(/C=C/C(=O)N2CCN(C(C)=O)CC2)cc1OC`, for which the IC50 in assay [13] was found to be 10.7 µM. As for `COc1ccccc1Sc1cc(C)c(/C=C/C(=O)N2CCC(C(=O)O)CC2)cc1Cl`, in assay [6], the IC50 is above 20 µM. As for `Cn1ccc2cc(Sc3ccc(/C=C/C(=O)N4CCC(C(=O)O)CC4)c(Cl)c3Cl)ccc21`, the figures for the Polymorphonuclear cells in assay [14] and in assay [19] were 7.48 and 4.88, respectively. Also, the results for the Total cells in assay [15], in [16] and in assay [21] were 189 number ul-1, 291 number ul-1 and 147 number ul-1, respectively. Moreover, the Neutrophils in [17] is reported as 36%; in assay [18], 30%; in assay [20] it was 31%. Further, the IC50 in [22] was determined as 0.004 µM; in assay [23] it was 0.006 µM.

For `COc1ccccc1Sc1ccc(/C=C/C(=O)N2CCC(C(=O)O)CC2)c(Cl)c1Cl`, the IC50 in assay [24] and in [25] was 0.008 µM in each case.

For orientation: IC50 means the midpoint of a concentration-inhibition curve.

Source of the values: ChEMBL document CHEMBL1134304, “Discovery of novel p-arylthio cinnamides as antagonists of leukocyte function-associated antigen-1/intercellular adhesion molecule-1 interaction. 4. Structure-activity relationship of substituents on the benzene ring of the cinnamide” (J Med Chem, 2001).
